# According to the NIST ThermoML archive (doi:10.1021/je049909d):
# ± gives the expanded uncertainty stated by the source.
# How the values were obtained:
# [1] = refractive index (Na D-line) (dimensionless); xn = mol fraction of the nth substance listed; settings: 298.15 K, 101.3 kPa, Liquid, Standard Abbe refractometry
# [2] = xn = mol fraction of the nth substance listed; settings: 298.15 K, 101.3 kPa, Liquid; for speed of sound: Sing-around technique in a fixed-path interferometer
# [3] = Liquid; for mass density / speed of sound: 298.15 K, 101.33 kPa; for speed of sound: Sing-around technique in a fixed-path interferometer
# [4] = refractive index (Na D-line) (dimensionless); settings: 298.15 K; 101.33 kPa; Liquid; Standard Abbe refractometry
structure (smiles),measurement,setting,value
C=COC(=O)CC [vinyl propanoate] + C=COC(C)=O,refractive index,[1]; x2 = 0.05,1.40114 ± 0.00073
same,refractive index,[1]; x2 = 0.102,1.4007 ± 0.00073
same,refractive index,[1]; x2 = 0.167,1.40017 ± 0.00073
same,refractive index,[1]; x2 = 0.207,1.39986 ± 0.00073
same,refractive index,[1]; x2 = 0.264,1.39937 ± 0.00073
same,refractive index,[1]; x2 = 0.297,1.39906 ± 0.00073
same,refractive index,[1]; x2 = 0.354,1.3985 ± 0.00073
same,refractive index,[1]; x2 = 0.403,1.39817 ± 0.00073
same,refractive index,[1]; x2 = 0.466,1.39762 ± 0.00073
same,refractive index,[1]; x2 = 0.504,1.3973 ± 0.00073
same,refractive index,[1]; x2 = 0.545,1.3969 ± 0.00073
same,refractive index,[1]; x2 = 0.601,1.3964 ± 0.00073
same,refractive index,[1]; x2 = 0.65,1.39591 ± 0.00073
same,refractive index,[1]; x2 = 0.696,1.39554 ± 0.00073
same,refractive index,[1]; x2 = 0.753,1.39493 ± 0.00073
same,refractive index,[1]; x2 = 0.8,1.39456 ± 0.00073
same,refractive index,[1]; x2 = 0.839,1.3941 ± 0.00073
same,refractive index,[1]; x2 = 0.901,1.39358 ± 0.00073
same,refractive index,[1]; x2 = 0.955,1.39295 ± 0.00073
same,speed of sound,[2]; x2 = 0.05,1132.8 ± 1 m/s
same,speed of sound,[2]; x2 = 0.102,1131.8 ± 1 m/s
same,speed of sound,[2]; x2 = 0.167,1130.5 ± 1 m/s
same,speed of sound,[2]; x2 = 0.207,1129.7 ± 1 m/s
same,speed of sound,[2]; x2 = 0.264,1128.6 ± 1 m/s
same,speed of sound,[2]; x2 = 0.297,1128 ± 1 m/s
same,speed of sound,[2]; x2 = 0.354,1126.9 ± 1 m/s
same,speed of sound,[2]; x2 = 0.403,1126 ± 1 m/s
same,speed of sound,[2]; x2 = 0.466,1124.9 ± 1 m/s
same,speed of sound,[2]; x2 = 0.504,1124.2 ± 1 m/s
same,speed of sound,[2]; x2 = 0.545,1123.4 ± 1 m/s
same,speed of sound,[2]; x2 = 0.601,1122.4 ± 1 m/s
same,speed of sound,[2]; x2 = 0.65,1121.6 ± 1 m/s
same,speed of sound,[2]; x2 = 0.696,1120.8 ± 1 m/s
same,speed of sound,[2]; x2 = 0.753,1119.8 ± 1 m/s
same,speed of sound,[2]; x2 = 0.8,1119 ± 1 m/s
same,speed of sound,[2]; x2 = 0.839,1118.3 ± 1 m/s
same,speed of sound,[2]; x2 = 0.901,1117.2 ± 1 m/s
same,speed of sound,[2]; x2 = 0.955,1116.3 ± 1 m/s
same,mass density,[2]; x2 = 0.05,910.31 ± 0.25 kg/m3
same,mass density,[2]; x2 = 0.102,911.01 ± 0.25 kg/m3
same,mass density,[2]; x2 = 0.167,911.87 ± 0.25 kg/m3
same,mass density,[2]; x2 = 0.207,912.4 ± 0.25 kg/m3
same,mass density,[2]; x2 = 0.264,913.2 ± 0.25 kg/m3
same,mass density,[2]; x2 = 0.297,913.66 ± 0.25 kg/m3
same,mass density,[2]; x2 = 0.354,914.5 ± 0.25 kg/m3
same,mass density,[2]; x2 = 0.403,915.25 ± 0.25 kg/m3
same,mass density,[2]; x2 = 0.466,916.22 ± 0.25 kg/m3
same,mass density,[2]; x2 = 0.504,916.8 ± 0.25 kg/m3
same,mass density,[2]; x2 = 0.545,917.48 ± 0.25 kg/m3
same,mass density,[2]; x2 = 0.601,918.39 ± 0.25 kg/m3
same,mass density,[2]; x2 = 0.65,919.18 ± 0.25 kg/m3
same,mass density,[2]; x2 = 0.696,919.96 ± 0.25 kg/m3
same,mass density,[2]; x2 = 0.753,920.95 ± 0.25 kg/m3
same,mass density,[2]; x2 = 0.8,921.79 ± 0.25 kg/m3
same,mass density,[2]; x2 = 0.839,922.51 ± 0.25 kg/m3
same,mass density,[2]; x2 = 0.901,923.67 ± 0.25 kg/m3
same,mass density,[2]; x2 = 0.955,924.72 ± 0.25 kg/m3
C=COC(C)=O [vinyl acetate],mass density,[3],925.59 ± 0.25 kg/m3
same,speed of sound,[3],1115.6 ± 1 m/s
same,vapor or sublimation pressure,[3]; 346.1 K,101.3 ± 1 kPa
same,refractive index,[4],1.39253 ± 0.00073
C=COC(=O)CC [vinyl propanoate],mass density,[3],909.69 ± 0.26 kg/m3
same,speed of sound,[3],1133.9 ± 1 m/s
same,vapor or sublimation pressure,"[3]; 320.7 K, Ebulliometric method (Recirculating still)",17.5 ± 0.2 kPa
same,vapor or sublimation pressure,"[3]; 325.3 K, Ebulliometric method (Recirculating still)",21.5 ± 0.2 kPa
same,vapor or sublimation pressure,"[3]; 329.4 K, Ebulliometric method (Recirculating still)",25.5 ± 0.2 kPa
same,vapor or sublimation pressure,"[3]; 333 K, Ebulliometric method (Recirculating still)",29.5 ± 0.3 kPa
same,vapor or sublimation pressure,"[3]; 336.3 K, Ebulliometric method (Recirculating still)",33.5 ± 0.3 kPa
same,vapor or sublimation pressure,"[3]; 339.3 K, Ebulliometric method (Recirculating still)",37.5 ± 0.3 kPa
same,vapor or sublimation pressure,"[3]; 341.9 K, Ebulliometric method (Recirculating still)",41.5 ± 0.3 kPa
same,vapor or sublimation pressure,"[3]; 344.4 K, Ebulliometric method (Recirculating still)",45.5 ± 0.3 kPa
same,vapor or sublimation pressure,"[3]; 346.8 K, Ebulliometric method (Recirculating still)",49.5 ± 0.4 kPa
same,vapor or sublimation pressure,"[3]; 348.9 K, Ebulliometric method (Recirculating still)",53.5 ± 0.4 kPa
same,vapor or sublimation pressure,"[3]; 350.9 K, Ebulliometric method (Recirculating still)",57.5 ± 0.4 kPa
same,vapor or sublimation pressure,"[3]; 352.8 K, Ebulliometric method (Recirculating still)",61.5 ± 0.4 kPa
same,vapor or sublimation pressure,"[3]; 354.7 K, Ebulliometric method (Recirculating still)",65.5 ± 0.5 kPa
same,vapor or sublimation pressure,"[3]; 356.3 K, Ebulliometric method (Recirculating still)",69.5 ± 0.5 kPa
same,vapor or sublimation pressure,"[3]; 358 K, Ebulliometric method (Recirculating still)",73.5 ± 0.5 kPa
same,vapor or sublimation pressure,"[3]; 359.6 K, Ebulliometric method (Recirculating still)",77.5 ± 0.5 kPa
same,vapor or sublimation pressure,"[3]; 361.1 K, Ebulliometric method (Recirculating still)",81.5 ± 0.5 kPa
same,vapor or sublimation pressure,"[3]; 362.6 K, Ebulliometric method (Recirculating still)",85.5 ± 0.6 kPa
same,vapor or sublimation pressure,"[3]; 364 K, Ebulliometric method (Recirculating still)",89.5 ± 0.6 kPa
same,vapor or sublimation pressure,"[3]; 365.4 K, Ebulliometric method (Recirculating still)",93.5 ± 0.6 kPa
same,vapor or sublimation pressure,"[3]; 366.7 K, Ebulliometric method (Recirculating still)",97.5 ± 0.6 kPa
same,vapor or sublimation pressure,"[3]; 368 K, Ebulliometric method (Recirculating still)",101.3 ± 1 kPa
same,vapor or sublimation pressure,"[3]; 368.1 K, Ebulliometric method (Recirculating still)",101.3 ± 1 kPa
same,refractive index,[4],1.40153 ± 0.00073
C=COC(=O)CC [vinyl propanoate] + CO,refractive index,[1]; x2 = 0.05,1.40022 ± 0.00073
same,refractive index,[1]; x2 = 0.101,1.39881 ± 0.00073
same,refractive index,[1]; x2 = 0.168,1.3968 ± 0.00072
same,refractive index,[1]; x2 = 0.198,1.39573 ± 0.00072
same,refractive index,[1]; x2 = 0.242,1.39416 ± 0.00072
same,refractive index,[1]; x2 = 0.311,1.39141 ± 0.00072
same,refractive index,[1]; x2 = 0.337,1.39039 ± 0.00072
same,refractive index,[1]; x2 = 0.39,1.38789 ± 0.00072
same,refractive index,[1]; x2 = 0.452,1.38474 ± 0.00072
same,refractive index,[1]; x2 = 0.526,1.38044 ± 0.00072
same,refractive index,[1]; x2 = 0.547,1.37911 ± 0.00072
same,refractive index,[1]; x2 = 0.597,1.37583 ± 0.00072
same,refractive index,[1]; x2 = 0.657,1.37115 ± 0.00072
same,refractive index,[1]; x2 = 0.708,1.36685 ± 0.00072
same,refractive index,[1]; x2 = 0.748,1.36283 ± 0.00072
same,refractive index,[1]; x2 = 0.8,1.35725 ± 0.00072
same,refractive index,[1]; x2 = 0.85,1.3512 ± 0.00072
same,refractive index,[1]; x2 = 0.899,1.34444 ± 0.00072
same,refractive index,[1]; x2 = 0.949,1.33649 ± 0.00072
same,speed of sound,[2]; x2 = 0.05,1132.9 ± 1 m/s
same,speed of sound,[2]; x2 = 0.101,1131.7 ± 1 m/s
same,speed of sound,[2]; x2 = 0.168,1130.2 ± 1 m/s
same,speed of sound,[2]; x2 = 0.198,1129.5 ± 1 m/s
same,speed of sound,[2]; x2 = 0.242,1128.4 ± 1 m/s
same,speed of sound,[2]; x2 = 0.311,1126.7 ± 1 m/s
same,speed of sound,[2]; x2 = 0.337,1126 ± 1 m/s
same,speed of sound,[2]; x2 = 0.39,1124.6 ± 1 m/s
same,speed of sound,[2]; x2 = 0.452,1122.8 ± 1 m/s
same,speed of sound,[2]; x2 = 0.526,1120.5 ± 1 m/s
same,speed of sound,[2]; x2 = 0.547,1119.8 ± 1 m/s
same,speed of sound,[2]; x2 = 0.597,1118 ± 1 m/s
same,speed of sound,[2]; x2 = 0.657,1115.9 ± 0.9 m/s
same,speed of sound,[2]; x2 = 0.708,1114.1 ± 0.9 m/s
same,speed of sound,[2]; x2 = 0.748,1112.6 ± 0.9 m/s
same,speed of sound,[2]; x2 = 0.8,1110.7 ± 0.9 m/s
same,speed of sound,[2]; x2 = 0.85,1108.7 ± 0.9 m/s
same,speed of sound,[2]; x2 = 0.899,1106.5 ± 0.9 m/s
same,speed of sound,[2]; x2 = 0.949,1104.9 ± 0.9 m/s
same,mass density,[2]; x2 = 0.05,907.45 ± 0.25 kg/m3
same,mass density,[2]; x2 = 0.101,905 ± 0.25 kg/m3
same,mass density,[2]; x2 = 0.168,901.52 ± 0.25 kg/m3
same,mass density,[2]; x2 = 0.198,899.81 ± 0.25 kg/m3
same,mass density,[2]; x2 = 0.242,897.25 ± 0.25 kg/m3
same,mass density,[2]; x2 = 0.311,892.66 ± 0.25 kg/m3
same,mass density,[2]; x2 = 0.337,890.92 ± 0.25 kg/m3
same,mass density,[2]; x2 = 0.39,886.94 ± 0.25 kg/m3
same,mass density,[2]; x2 = 0.452,881.8 ± 0.25 kg/m3
same,mass density,[2]; x2 = 0.526,874.78 ± 0.25 kg/m3
same,mass density,[2]; x2 = 0.547,872.66 ± 0.25 kg/m3
same,mass density,[2]; x2 = 0.597,867.2 ± 0.26 kg/m3
same,mass density,[2]; x2 = 0.657,859.7 ± 0.26 kg/m3
same,mass density,[2]; x2 = 0.708,852.65 ± 0.26 kg/m3
same,mass density,[2]; x2 = 0.748,846.29 ± 0.27 kg/m3
same,mass density,[2]; x2 = 0.8,837.26 ± 0.27 kg/m3
same,mass density,[2]; x2 = 0.85,827.36 ± 0.28 kg/m3
same,mass density,[2]; x2 = 0.899,816.21 ± 0.28 kg/m3
same,mass density,[2]; x2 = 0.949,803.01 ± 0.29 kg/m3
CO [methanol],mass density,[3],786.56 ± 0.31 kg/m3
same,speed of sound,[3],1101.8 ± 0.9 m/s
same,vapor or sublimation pressure,[3]; 337.9 K,101.3 ± 1 kPa
same,refractive index,[4],1.32634 ± 0.00072
